Test results as given in patent US8450320B2, “Pyrrolopyrazinone inhibitors of kinases” (AbbVie Inc., priority 2010, dated 2013).

molecular target: T1, Cdc7 (BEV coexpressed huCDC7/DBF4) (Homo sapiens, UniProt O00311); test: Cdc7 enzyme inhibition assay ([33P]-ATP, biotinylated peptide substrate, FlashPlate); assay type: biochemical; conditions: Ki generated from IC50 assuming ATP-competitive inhibition; 1 μM ATP, apparent ATP Km 0.7 μM
T1 construct: made in house; host or cells: BEV (baculovirus expression vector)
T1 sequence (O00311 whole entry): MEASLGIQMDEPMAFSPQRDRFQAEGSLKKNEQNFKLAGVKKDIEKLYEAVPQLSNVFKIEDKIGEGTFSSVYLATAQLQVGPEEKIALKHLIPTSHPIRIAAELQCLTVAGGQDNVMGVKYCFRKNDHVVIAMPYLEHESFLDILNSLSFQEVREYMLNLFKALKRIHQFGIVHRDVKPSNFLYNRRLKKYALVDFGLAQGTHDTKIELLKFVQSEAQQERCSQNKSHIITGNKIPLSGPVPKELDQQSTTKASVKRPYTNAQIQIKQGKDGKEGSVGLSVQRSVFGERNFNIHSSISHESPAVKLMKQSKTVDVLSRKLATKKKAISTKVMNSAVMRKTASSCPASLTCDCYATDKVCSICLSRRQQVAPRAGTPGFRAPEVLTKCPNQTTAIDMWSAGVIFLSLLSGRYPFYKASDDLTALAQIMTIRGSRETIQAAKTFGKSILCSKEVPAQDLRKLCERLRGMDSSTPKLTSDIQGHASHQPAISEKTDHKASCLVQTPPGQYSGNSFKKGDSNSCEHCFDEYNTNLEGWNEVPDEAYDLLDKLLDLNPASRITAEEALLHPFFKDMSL
T1 sequence (Q9UBU7 whole entry partner): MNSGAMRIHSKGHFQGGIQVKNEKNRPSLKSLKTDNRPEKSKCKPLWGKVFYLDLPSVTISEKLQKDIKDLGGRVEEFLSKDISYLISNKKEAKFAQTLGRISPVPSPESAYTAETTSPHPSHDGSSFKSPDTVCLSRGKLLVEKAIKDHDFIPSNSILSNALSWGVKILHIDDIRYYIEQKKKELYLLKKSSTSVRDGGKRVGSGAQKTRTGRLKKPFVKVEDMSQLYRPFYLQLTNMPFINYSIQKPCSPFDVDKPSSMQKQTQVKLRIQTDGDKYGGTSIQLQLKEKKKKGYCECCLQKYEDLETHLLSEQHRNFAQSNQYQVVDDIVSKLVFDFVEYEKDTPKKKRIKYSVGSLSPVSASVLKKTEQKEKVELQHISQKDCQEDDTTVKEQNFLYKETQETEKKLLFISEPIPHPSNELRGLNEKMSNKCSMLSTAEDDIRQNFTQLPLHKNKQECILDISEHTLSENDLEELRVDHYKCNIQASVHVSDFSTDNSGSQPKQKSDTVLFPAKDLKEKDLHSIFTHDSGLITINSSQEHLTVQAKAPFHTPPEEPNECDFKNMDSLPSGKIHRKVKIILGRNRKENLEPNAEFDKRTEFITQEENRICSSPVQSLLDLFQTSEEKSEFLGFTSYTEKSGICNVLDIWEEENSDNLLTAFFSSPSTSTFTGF
Experimental: This example describes the assays that may be used to identify compounds having kinase activity.
Cdc7 (BEV coexpressed huCDC7/DBF4) is prepared internally. Cdc7 assays are conducted as follows with final concentrations as listed. In 384-well v-bottom polypropylene plates, 6 μL compound (2% DMSO), is mixed with 6 μL of Cdc7 (2 ug/mL), and Jerini peptide substrate A-All (biotin-C6linker-TPSDSLIYDDGLS) (2 μM), followed by immediate initiation with 6 μL […] (1 μM, 20 mCi/μmol) using a reaction buffer comprising 25 mM HEPES, pH 7.5, 1 mM DTT, 10 mM MgCl2, 100 μM Na3VO4, 0.075 mg/ml Triton X-100. Reactions are quenched after 1 hr by the addition of 90 μL stop buffer (50 mM EDTA, 2M NaCl). 85 μL of the stopped reactions are transferred to 384-well streptavidin-coated plates (FlashPlate Plus, Perkin Elmer), incubated 30 minutes at room temperature and washed 3 times with 0.05% Tween-20/PBS using an ELX-405 automated plate washer (BioTek), and counted on a TopCount Scintillation Plate Reader (Packard). IC50 values are determined via non-linear regression fitting of enzyme inhibition data and corresponding Ki values are generated assuming ATP-competitive (equilibrium) inhibition and using the experimentally determined apparent ATP Km of 0.7 μM (as determined using the above assay condition, but varying ATP).
Table 1 depicts enzyme inhibition data (Ki) for exemplary compounds. In Table 1, “A” represents a Ki of less than 10 nM, “B” represents a Ki of between 10 nM and 100 nM, and “C” represents a Ki of greater than 100 nM.

Row | SMILES | Ki [nM]
1 | CCC(CC)Nc1ccc(Cc2c[nH]c(=O)c3cc(-c4c[nH]c5ncccc45)cn23)cc1 [Example 35, 4-[4-(pentan-3-ylamino)benzyl]-7-(1H-pyrrolo[2,3-b]pyridin-3-yl)pyrrolo[1,2-a]pyrazin-1(2H)-one] | 10 to 100
2 | CN(C)Cc1ccc(Cc2c[nH]c(=O)c3cc(-c4c[nH]c5ncccc45)cn23)cc1 [Example 36, 4-{4-[(dimethylamino)methyl]benzyl}-7-(1H-pyrrolo[2,3-b]pyridin-3-yl)pyrrolo[1,2-a]pyrazin-1(2H)-one] | < 10
3 | CS(=O)(=O)Nc1ccc(Cc2c[nH]c(=O)c3cc(-c4c[nH]c5ncccc45)cn23)cc1 [Example 38, N-(4-{[1-oxo-7-(1H-pyrrolo[2,3-b]pyridin-3-yl)-1,2-dihydropyrrolo[1,2-a]pyrazin-4-yl]methyl}phenyl)methanesulfonamide] | < 10
4 | CC(Nc1ccc(Cc2c[nH]c(=O)c3cc(-c4c[nH]c5ncccc45)cn23)cc1)C1CC1 (centres unmarked) [Example 39, 4-{4-[(1-cyclopropylethyl)amino]benzyl}-7-(1H-pyrrolo[2,3-b]pyridin-3-yl)pyrrolo[1,2-a]pyrazin-1(2H)-one] | < 10
5 | CN1CCCC(C(=O)Nc2ccc(Cc3c[nH]c(=O)c4cc(-c5c[nH]c6ncccc56)cn34)cc2)C1 (centres unmarked) [Example 40, 1-methyl-N-(4-{[1-oxo-7-(1H-pyrrolo[2,3-b]pyridin-3-yl)-1,2-dihydropyrrolo[1,2-a]pyrazin-4-yl]methyl}phenyl)piperidine-3-carboxamide] | < 10
6 | O=C(Nc1ccc(Cc2c[nH]c(=O)c3cc(-c4c[nH]c5ncccc45)cn23)cc1)c1ccccc1 [Example 42, N-(4-{[1-oxo-7-(1H-pyrrolo[2,3-b]pyridin-3-yl)-1,2-dihydropyrrolo[1,2-a]pyrazin-4-yl]methyl}phenyl)benzamide] | < 10

Other lines, results leading:

Row | Ki [nM] | SMILES
7 | < 10 | CC(C)N1CCC(Nc2ccc(Cc3c[nH]c(=O)c4cc(-c5c[nH]c6ncccc56)cn34)cc2)CC1 [Example 32, 4-{4-[(1-isopropylpiperidin-4-yl)amino]benzyl}-7-(1H-pyrrolo[2,3-b]pyridin-3-yl)pyrrolo[1,2-a]pyrazin-1(2H)-one]
8 | < 10 | CN(C)CC(=O)Nc1cccc(Cc2c[nH]c(=O)c3cc(-c4c[nH]c5ncccc45)cn23)c1 [Example 33, N^2,N^2-dimethyl-N-(3-{[1-oxo-7-(1H-pyrrolo[2,3-b]pyridin-3-yl)-1,2-dihydropyrrolo[1,2-a]pyrazin-4-yl]methyl}phenyl)glycinamide]
9 | < 10 | CN(C)CC(=O)NCc1ccc(Cc2c[nH]c(=O)c3cc(-c4c[nH]c5ncccc45)cn23)cc1 [Example 34, N^2,N^2-dimethyl-N-(4-{[1-oxo-7-(1H-pyrrolo[2,3-b]pyridin-3-yl)-1,2-dihydropyrrolo[1,2-a]pyrazin-4-yl]methyl}benzyl)glycinamide]
10 | < 10 | NCc1ccc(Cc2c[nH]c(=O)c3cc(-c4c[nH]c5ncccc45)cn23)cc1 [Example 37, 4-[4-(aminomethyl)benzyl]-7-(1H-pyrrolo[2,3-b]pyridin-3-yl)pyrrolo[1,2-a]pyrazin-1(2H)-one]
11 | < 10 | CN(C)c1cccc(Cc2c[nH]c(=O)c3cc(-c4c[nH]c5ncccc45)cn23)c1 [Example 41, 4-[3-(dimethylamino)benzyl]-7-(1H-pyrrolo[2,3-b]pyridin-3-yl)pyrrolo[1,2-a]pyrazin-1(2H)-one]
12 | < 10 | CS(=O)(=O)Nc1ccc(C(=O)c2c[nH]c(=O)c3cc(-c4c[nH]c5ncccc45)cn23)cc1 [Example 43, N-(4-{[1-oxo-7-(1H-pyrrolo[2,3-b]pyridin-3-yl)-1,2-dihydropyrrolo[1,2-a]pyrazin-4-yl]carbonyl}phenyl)methanesulfonamide]
13 | < 10 | NC1CCC(NCc2ccc(Cc3c[nH]c(=O)c4cc(-c5c[nH]c6ncccc56)cn34)cc2)CC1 (centres unmarked) [Example 44, 4-(4-{[(4-aminocyclohexyl)amino]methyl}benzyl)-7-(1H-pyrrolo[2,3-b]pyridin-3-yl)pyrrolo[1,2-a]pyrazin-1(2H)-one]
14 | > 100 | CC(=O)NCc1ccc(Cc2c[nH]c(=O)c3cc(-c4c[nH]c5ncccc45)cn23)cc1 [Example 45, N-(4-{[1-oxo-7-(1H-pyrrolo[2,3-b]pyridin-3-yl)-1,2-dihydropyrrolo[1,2-a]pyrazin-4-yl]methyl}benzyl)acetamide]
